{"source": "paper PMC8086144", "about": "“A novel peptide antagonist of the human growth hormone receptor” (The Journal of Biological Chemistry, 2021)", "biological_target": "T1, hPRLR (Homo sapiens, UniProt P16471)", "T1 construct": "T84 cells express high levels of hPRLR relative to hGHR (>1300:1); host or cells: T84 (human colon cancer), MALME-3M (human melanoma)", "T1 sequence (P16471 25-622)": "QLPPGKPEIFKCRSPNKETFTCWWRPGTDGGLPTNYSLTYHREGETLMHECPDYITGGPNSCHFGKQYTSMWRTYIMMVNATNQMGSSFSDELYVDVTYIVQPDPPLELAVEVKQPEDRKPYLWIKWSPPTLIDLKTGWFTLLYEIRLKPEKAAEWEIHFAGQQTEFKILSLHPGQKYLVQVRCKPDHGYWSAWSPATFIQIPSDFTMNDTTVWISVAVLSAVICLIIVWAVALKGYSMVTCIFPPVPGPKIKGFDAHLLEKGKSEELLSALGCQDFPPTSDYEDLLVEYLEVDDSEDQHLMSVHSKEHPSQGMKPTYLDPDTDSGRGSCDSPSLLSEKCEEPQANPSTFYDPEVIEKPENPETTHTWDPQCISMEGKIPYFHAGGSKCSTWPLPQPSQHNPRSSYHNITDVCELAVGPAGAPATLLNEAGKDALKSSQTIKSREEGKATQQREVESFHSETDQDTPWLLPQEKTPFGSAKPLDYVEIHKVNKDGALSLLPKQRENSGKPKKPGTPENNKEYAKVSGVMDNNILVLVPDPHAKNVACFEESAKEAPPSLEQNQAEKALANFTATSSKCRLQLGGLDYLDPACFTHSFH", "assay": "hPRL-induced pSTAT5 in T84 cells, Western blot", "assay_type": "cell-based", "conditions": "2.5 nM hPRL, 20 min, S1H concentration not given", "protocol": "SK-MEL-28, MALME-3M, and T84 cells were grown and maintained in Eagle's Minimal Essential Medium. IM9 and L cells were grown in RPMI-1640 media and Dulbecco's modified Eagle's medium, respectively. All growth media was supplemented with 10% fetal bovine serum and 1× antibiotic-antimycotic […] solution. Cells were grown at 37 °C under a 5% CO2 atmosphere in a humidified incubator, and growth media was replaced every 48 h during incubation. No hGH was present in or added to the growth media unless specifically indicated. […]\nFollowing treatment, the cells were harvested at the indicated time points, and the total protein was extracted. […] Sample protein concentration was quantified using a Bradford assay with bovine serum albumin as the protein standard. Absorbance at 595 nm was measured using a Spectramax 250 multimode plate reader (Molecular Devices) and processed using SoftmaxPro v4.7.1 software.\nCytosolic fractions from treated cells were thawed on ice, and 80 μg protein was loaded onto polyacrylamide gels for separation by SDS-PAGE. […] Chemiluminescence signals were detected using a GelDoc (BioRad) fluorescence imager. […]"}
{"smiles": "CC[C@H](C)[C@H](NC(=O)[C@H](Cc1ccc(O)cc1)NC(C)=O)C(=O)N1CCC[C@H]1C(=O)N[C@@H](CCCCN)C(=O)N[C@@H](CCC(=O)O)C(=O)N[C@@H](CCC(N)=O)C(=O)N[C@@H](CCCCN)C(=O)N[C@@H](Cc1ccc(O)cc1)C(=O)N[C@@H](CO)C(=O)N[C@@H](Cc1ccccc1)C(=O)N[C@@H](CC(C)C)C(=O)N[C@@H](CCC(N)=O)C(=O)N[C@@H](CC(N)=O)C(=O)N1CCC[C@H]1C(=O)N[C@@H](CCC(N)=O)C(=O)N[C@H](C(N)=O)[C@@H](C)O", "note": "[S1H]", "values": [{"measurement": "inhibition of hPRL-induced pSTAT5", "result": 13, "unit": "%"}]}
